Columns and labels:
MRSA COL (MB5393) [1] = assay: TarO Inhibitor/β-Lactam Synergy Assay (growth, OD600); assay type: cell-based; conditions: Staphylococcus aureus, TarO inhibitor alone, >200 μM = 95% growth inhibition not achieved, 20 hours at 37° C., read-out: MITC95 TarO inhibitor alone, Bacteria: SA_MB5393
MRSA COL (MB5393) [2] = assay: as above; assay type: cell-based, Staphylococcus aureus; conditions: for MITC95 TarO inhibitor + 4 μg/mL IPM; Bacteria: SA_MB5393: in combination with 4 μg/mL imipenem (IPM); for MITC95 TarO inhibitor + 8 μg/mL DCX; Bacteria: SA_MB5393: in combination with 8 μg/mL dicloxacillin (DCX)
How it was run: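 TarO inhibitors titrated 2-fold from 200 μM (2% DMSO) against MRSA COL, 5×10^5 CFU in CAMHB, with β-lactam fixed at clinical breakpoint (imipenem 4 μg/ml or dicloxacillin 8 μg/ml). Incubated 20 h at 37 °C without shaking; relative growth read as OD600.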

Row | SMILES | IC95 (MRSA COL (MB5393) [1]) [µM] | MITC95 TarO inhibitor + 4 μg/mL IPM; Bacteria: SA_MB5393 (MRSA COL (MB5393) [2]) [µM] | MITC95 TarO inhibitor + 8 μg/mL DCX; Bacteria: SA_MB5393 (MRSA COL (MB5393) [2]) [µM]
1 | C[C@H]1[C@@H](c2cc(C(F)(F)F)cc(C(F)(F)F)c2)OC(=O)N1C(=O)NCc1cccc2ccnn12 [Example 2, (4S,5R)-5-[3,5-bis(trifluoromethyl)phenyl]-4-methyl-2-oxo-N-(pyrazolo[1,5-a]pyridin-7-ylmethyl)-1,3-oxazolidine-3-carboxamide] | > 200 | 0.01 | 0.21
2 | C[C@H]1[C@@H](c2cc(Cl)cc(C(F)(F)F)c2)OC(=O)N1C(=O)CCc1cccc2ccccc12 [Example 66, (4S,5R)-5-[3-chloro-5-(trifluoromethyl)phenyl]-4-methyl-3-(3-naphthalen-1-ylpropanoyl)-1,3-oxazolidin-2-one] | > 200 | 0.03 | 0.20
3 | C[C@H]1[C@@H](c2cc(C(F)(F)F)cc(C(F)(F)F)c2)OC(=O)N1C(=O)NCc1ncccc1Br [Example 28, (4S,5R)-5-[3,5-bis(trifluoromethyl)phenyl]-N-[(3-bromopyridin-2-yl)methyl]-4-methyl-2-oxo-1,3-oxazolidine-3-carboxamide] | > 200 | 0.70 | 4.69
4 | COc1cc([C@H]2OC(=O)N(C(=O)NCc3cncc4ccccc34)[C@H]2CO)cc(C(F)(F)F)c1 [Example 55, (4S,5R)-4-(hydroxymethyl)-N-(isoquinolin-4-ylmethyl)-5-[3-methoxy-5-(trifluoromethyl)phenyl]-2-oxo-1,3-oxazolidine-3-carboxamide] | > 200 | 0.30 | 1.18
5 | C[C@H]1[C@@H](c2cccc(OC(F)(F)F)c2)OC(=O)N1C(=O)CCc1cncc2ccccc12 [Example 72, (4S,5R)-3-(3-isoquinolin-4-ylpropanoyl)-4-methyl-5-[3-(trifluoromethoxy)phenyl]-1,3-oxazolidin-2-one] | > 200 | 0.21 | 1.56
6 | C[C@H]1[C@@H](c2cc(C(F)(F)F)cc(C(F)(F)F)c2)OC(=O)N1C(=O)NCc1cccc2c1OCCO2 [Example 49, (4S,5R)-5-[3,5-bis(trifluoromethyl)phenyl]-N-(2,3-dihydro-1,4-benzodioxin-5-ylmethyl)-4-methyl-2-oxo-1,3-oxazolidine-3-carboxamide] | > 200 | 0.02 | 0.13
7 | C[C@H]1[C@@H](c2cc(F)cc(C(F)(F)F)c2)OC(=O)N1C(=O)NCc1ccccc1C(F)(F)F [Example 7, (4S,5R)-5-[3-fluoro-5-(trifluoromethyl)phenyl]-4-methyl-2-oxo-N-[2-(trifluoromethyl)benzyl]-1,3-oxazolidine-3-carboxamide] | > 200 | 0.05 | 0.33
8 | O=C(NCc1cncc2ccccc12)N1C(=O)O[C@H](c2cc(F)cc(C(F)(F)F)c2)[C@@H]1CCO [Example 99, (4S,5R)-5-(3-fluoro-5-(trifluoromethyl)phenyl)-4-(2-hydroxyethyl)-N-(isoquinolin-4-ylmethyl)-2-oxooxazolidine-3-carboxamide] | > 200 | 18.75 | 100
9 | C[C@H]1[C@@H](c2cccc(OC(F)(F)F)c2)OC(=O)N1C(=O)CCc1cccc2ccccc12 [Example 69, (4S,5R)-4-methyl-3-(3-naphthalen-1-ylpropanoyl)-5-[3-(trifluoromethoxy)phenyl]-1,3-oxazolidin-2-one] | > 200 | 0.11 | 0.39
10 | C[C@H]1[C@@H](c2ccc(F)c(F)c2)OC(=O)N1C(=O)CCc1cncc2ccccc12 [Example 82, (4S,5R)-5-(3,4-difluorophenyl)-3-(3-isoquinolin-4-ylpropanoyl)-4-methyl-1,3-oxazolidin-2-one] | > 200 | 9.38 | –
11 | Cc1nc(C)c(CNC(=O)N2C(=O)O[C@H](c3cc(F)cc(C(F)(F)F)c3)[C@@H]2C)s1 [Example 43, (4S,5R)-N-[(2,4-dimethyl-1,3-thiazol-5-yl)methyl]-5-[3-fluoro-5-(trifluoromethyl)phenyl]-4-methyl-2-oxo-1,3-oxazolidine-3-carboxamide] | > 200 | 5.21 | 42
12 | COc1cc(C(F)(F)F)nc([C@@H]2OC(=O)N(C(=O)NCc3cncc4ccccc34)[C@H]2C)n1 [Example 96, (4S,5R)—N-(isoquinolin-4-ylmethyl)-5-(4-methoxy-6-(trifluoromethyl)pyrimidin-2-yl)-4-methyl-2-oxooxazolidine-3-carboxamide] | > 200 | 4.17 | 25
13 | C[C@H]1[C@@H](c2cc(F)cc(C(F)(F)F)c2)OC(=O)N1C(=O)NCc1ccnc2cccnc12 [Example 34, (4S,5R)-5-[3-fluoro-5-(trifluoromethyl)phenyl]-4-methyl-N-(1,5-naphthyridin-4-ylmethyl)-2-oxo-1,3-oxazolidine-3-carboxamide] | > 200 | 1.95 | 14.06
14 | Cc1nc(C(C)C)sc1CNC(=O)N1C(=O)O[C@H](c2cc(F)cc(C(F)(F)F)c2)[C@@H]1C [Example 20, (4S,5R)-5-[3-fluoro-5-(trifluoromethyl)phenyl]-4-methyl-N-{[4-methyl-2-(1-methylethyl)-1,3-thiazol-5-yl]methyl}-2-oxo-1,3-oxazolidine-3-carboxamide] | > 200 | 0.43 | 3.65
15 | C[C@H]1[C@@H](c2cc(C(F)(F)F)cc(C(F)(F)F)c2)OC(=O)N1C(=O)CCc1cccc2ncccc12 [Example 73, (4S,5R)-5-[3,5-bis(trifluoromethyl)phenyl]-4-methyl-3-(3-quinolin-5-ylpropanoyl)-1,3-oxazolidin-2-one] | > 200 | 0.56 | 6.25
16 | O=C(CCc1cncc2ccccc12)N1C[C@H](c2cc(C(F)(F)F)cc(C(F)(F)F)c2)OC1=O [Example 85, (5S)-5-[3,5-bis(trifluoromethyl)phenyl]-3-(3-isoquinolin-4-ylpropanoyl)-1,3-oxazolidin-2-one] | > 200 | 0.55 | 25.00
17 | COc1cc([C@H]2OC(=O)N(C(=O)NCc3cccc4nccnc34)[C@H]2CO)cc(C(F)(F)F)c1 [Example 58, (4S,5R)-4-(hydroxymethyl)-5-[3-methoxy-5-(trifluoromethyl)phenyl]-2-oxo-N-(quinoxalin-5-ylmethyl)-1,3-oxazolidine-3-carboxamide] | > 200 | 1.56 | 6.25
18 | C[C@H]1[C@@H](c2cccc(C(F)F)c2)OC(=O)N1C(=O)NCc1cncc2ccccc12 [Example 33, (4S,5R)-5-[3-(difluoromethyl)phenyl]-N-(isoquinolin-4-ylmethyl)-4-methyl-2-oxo-1,3-oxazolidine-3-carboxamide] | > 200 | 1.37 | 9.38
19 | COc1cc([C@H]2OC(=O)N(C(=O)NCc3cccc4cncnc34)[C@H]2CO)cc(C(F)(F)F)c1 [Example 59, (4S,5R)-4-(hydroxymethyl)-5-[3-methoxy-5-(trifluoromethyl)phenyl]-2-oxo-N-(quinazolin-8-ylmethyl)-1,3-oxazolidine-3-carboxamide] | > 200 | 1.95 | 10.42
20 | COc1ccccc1CNC(=O)N1C(=O)O[C@H](c2cc(F)cc(C(F)(F)F)c2)[C@@H]1C [Example 8, (4S,5R)-5-[3-fluoro-5-(trifluoromethyl)phenyl]-N-(2-methoxybenzyl)-4-methyl-2-oxo-1,3-oxazolidine-3-carboxamide] | > 200 | 0.13 | 1.32
21 | Cc1cccnc1CNC(=O)N1C(=O)O[C@H](c2cc(C(F)(F)F)cc(C(F)(F)F)c2)[C@@H]1C [Example 31, (4S,5R)-5-[3,5-bis(trifluoromethyl)phenyl]-4-methyl-N-[(3-methylpyridin-2-yl)methyl]-2-oxo-1,3-oxazolidine-3-carboxamide] | > 200 | 0.43 | 8.33
22 | C[C@H]1[C@@H](c2cc(C(F)(F)F)ccn2)OC(=O)N1C(=O)CCc1cncc2ccccc12 [Example 89, (4S,5S)-3-(3-(isoquinolin-4-yl)propanoyl)-4-methyl-5-(4-(trifluoromethyl)pyridin-2-yl)oxazolidin-2-one] | > 200 | 6.25 | 75
23 | C[C@H]1[C@@H](c2cc(F)cc(C(F)(F)F)c2)OC(=O)N1C(=O)NCc1ccccc1CN(C)C [Example 36, (4S,5R)-N-{2-[(dimethylamino)methyl]benzyl}-5-[3-fluoro-5-(trifluoromethyl)phenyl]-4-methyl-2-oxo-1,3-oxazolidine-3-carboxamide] | > 200 | 6.25 | 25

Source: patent publication US11141410B2 (MERCK SHARP & DOHME CORP., priority 2015, dated 2021)
